One assay relates to C6 glioma tumors. In words: C6 glioma tumors subcutaneously implanted in mice, oral administration. In kind it is in vivo. To be noted: 200 mg/kg/day, day 18 post-implantation, subcutaneous C6 tumors in BALB/c nu/nu mice. The method, then: The following protocol can be used to perform xenograft experiments:
Female athymic mice (BALB/c, nu/nu) are obtained from Simonsen Laboratories (Gilroy, Calif.). All animals are maintained under clean-room conditions in Micro-isolator cages with Alpha-dri bedding. They receive sterile rodent chow and water ad libitum.
Cell lines are grown in appropriate medium (for example, MEM, DMEM, Ham's F10, or Ham's F12 plus 5%-10% fetal bovine serum (FBS) and 2 mM glutamine (GLN)). All cell culture media, glutamine, and fetal bovine serum are purchased from Gibco Life Technologies (Grand Island, N.Y.) unless otherwise specified. All cells are grown in a humid atmosphere of 90-95% air and 5-10% CO2 at 37° C. All cell lines are routinely subcultured twice a week and are negative for mycoplasma as determined by the Mycotect method (Gibco).
Cells are harvested at or near confluency with 0.05% Trypsin-EDTA and pelleted at 450 x g for 10 min. […] Tumor growth is measured over 3 to 6 weeks using venier calipers. Tumor volumes are calculated as a product of length×width×height unless otherwise indicated. P values are calculated using the Students t-test. […]
The compounds also maintain excellent activity when tested in vivo. […] Tumor growth was measured using vernier calipers and tumor volumes were calculated as the product of length×width×height. […]

Assay [1] in a line: Potency in vitro (data not shown).
The next assay addresses T1, PDGFR (Homo sapiens, UniProt P09619).
T1 construct: expressed in transfected cells; host or cells: NIH 3T3 cells expressing PDGFR-β (lysate, Screening Lab, SUGEN)
Kind of assay: Inhibition constant (Ki) against PDGFR. In kind it is biochemical. The conditions noted are these: data not shown.

The next assay has as its system HUV-EC-C cells (aFGF). In words: HUV-EC-C assay, aFGF (ECGF)-stimulated 3H-thymidine incorporation (HUVEC-aFGF). The class given is cell-based. The conditions noted are these: Homo sapiens; Table 1. The method, then: (§1) The following protocol may also be used to measure a compound's activity against PDGF-R, FGF-R, VEGF, aFGF or Flk-1/KDR, all of which are naturally expressed by HUV-EC cells.
(§2) 1. […] After cells have detached from the flask, add an equal volume of assay medium and transfer to a 50 ml sterile centrifuge tube (Fisher Scientific, catalogue no. 05-539-6).
(§3) 2. Wash the cells with about 35 ml assay medium in the 50 ml sterile centrifuge tube by adding the assay medium, centrifuge for 10 minutes at approximately 200x g, aspirate the supernatant, and resuspend with 35 ml D-PBS. Repeat the wash two more times with D-PBS, resuspend the cells in about 1 ml assay medium/is cm^2 of tissue culture flask. Assay medium consists of F12K medium (Gibco BRL, catalogue no. 21127-014) and 0.5% heat-inactivated fetal bovine serum. Count the cells with a Coulter Counter® (Coulter Electronics, Inc.) and add assay medium to the cells to obtain a concentration of 0.8-1.0×10^5 cells/ml.
(§4) 3. Add cells to 96-well flat-bottom plates at 100 μl/well or 0.8-1.0×10^4 cells/well, incubate −24h at 37° C., 5% CO2.
(§5) 1. Make up two-fold test compound titrations in separate 96-well plates, generally 50 μM on down to 0 μM. Use the same assay medium as mentioned in day 0, step 2 above. Titrations are made by adding […] of test compound at 200 μM (4X the final well concentration) to the top well of a particular plate column. Since the stock test compound is usually 20 mM in DMSO, the 200 μM drug concentration contains 2% DMSO.
(§6) A diluent made up to 2% DMSO in assay medium (F12K+0.5% fetal bovine serum) is used as diluent for the test compound titrations in order to dilute the test compound but keep the DMSO concentration constant. Add this diluent to the remaining wells in the column at 60 μl/well. Take 60 μl from the 120 μl of 200 μM test compound dilution in the top well of the column and mix with the 60 μl in the second well of the column. Take 60 μl from this well and mix with the 60 μl in the third well of the column, and so on until two-fold titrations are completed. When the next-to-the-last well is mixed, take 60 μl of the 120 μl in this well and discard it. Leave the last well with 60 μl of DMSO/media diluent as a non-test compound-containing control. Make 9 columns of titrated test compound, enough for triplicate wells each for: (1) VEGF (obtained from Pepro Tech Inc., catalogue no. 100-200, (2) endothelial cell growth factor (ECGF) (also known as acidic fibroblast growth factor, or aFGF) (obtained from Boehringer Mannheim Biochemica, catalogue no. 1439 600), or, (3) human PDGF B/B (1276-956, Boehringer Mannheim, Germany) and assay media control. ECGF comes as a preparation with sodium heparin.
(§7) 2. Transfer 50 μl/well of the test compound dilutions to the 96-well assay plates containing the 0.8-1.0×10^4 cells/100 μl/well of the HUV-EC-C cells from day 0 and incubate […] at 37° C., 5% CO2.
(§8) 3. In triplicate, add 50 μl well of […] VEGF, 20 ng/ml ECGF, or media control to each test compound condition. As with the test compounds, the growth factor concentrations are 4X the desired final concentration. Use the assay media from day 0 step 2 to make the concentrations of growth factors. Incubate approximately 24 hours at 37° C., 5% CO2. Each well will have 50 μl test compound dilution, 50 μl growth factor or media, and 100 μl cells, which calculates to 200 μl/well total. Thus the 4X concentrations of test compound and growth factors become 1X once everything has been added to the wells.
(§9) 1. Add ^3H-thymidine (Amersham, catalogue no. TRK-686) at 1 μCi/well (10 μl/well of 100 μCi/ml solution made up in RPMI media +10% heat-inactivated fetal bovine serum) and incubate ˜24 h at 37° C., 5% CO2. RPMI is obtained from Gibco BRL, catalogue no. 11875-051.
(§10) 1. Freeze plates overnight at −20° C. […]

For a further assay, the system named is HUV-EC-C cells (VEGF). In words: HUV-EC-C assay, VEGF-stimulated 3H-thymidine incorporation (HUVEC-VEGF). In kind it is cell-based. The conditions noted are these: Homo sapiens; Table 1. The method, then: as §1, §2, §3, §4, §5, §6, §7, §8, §9, §10

The structures appear in SMILES notation.

T1 sequence (P09619 33-1106): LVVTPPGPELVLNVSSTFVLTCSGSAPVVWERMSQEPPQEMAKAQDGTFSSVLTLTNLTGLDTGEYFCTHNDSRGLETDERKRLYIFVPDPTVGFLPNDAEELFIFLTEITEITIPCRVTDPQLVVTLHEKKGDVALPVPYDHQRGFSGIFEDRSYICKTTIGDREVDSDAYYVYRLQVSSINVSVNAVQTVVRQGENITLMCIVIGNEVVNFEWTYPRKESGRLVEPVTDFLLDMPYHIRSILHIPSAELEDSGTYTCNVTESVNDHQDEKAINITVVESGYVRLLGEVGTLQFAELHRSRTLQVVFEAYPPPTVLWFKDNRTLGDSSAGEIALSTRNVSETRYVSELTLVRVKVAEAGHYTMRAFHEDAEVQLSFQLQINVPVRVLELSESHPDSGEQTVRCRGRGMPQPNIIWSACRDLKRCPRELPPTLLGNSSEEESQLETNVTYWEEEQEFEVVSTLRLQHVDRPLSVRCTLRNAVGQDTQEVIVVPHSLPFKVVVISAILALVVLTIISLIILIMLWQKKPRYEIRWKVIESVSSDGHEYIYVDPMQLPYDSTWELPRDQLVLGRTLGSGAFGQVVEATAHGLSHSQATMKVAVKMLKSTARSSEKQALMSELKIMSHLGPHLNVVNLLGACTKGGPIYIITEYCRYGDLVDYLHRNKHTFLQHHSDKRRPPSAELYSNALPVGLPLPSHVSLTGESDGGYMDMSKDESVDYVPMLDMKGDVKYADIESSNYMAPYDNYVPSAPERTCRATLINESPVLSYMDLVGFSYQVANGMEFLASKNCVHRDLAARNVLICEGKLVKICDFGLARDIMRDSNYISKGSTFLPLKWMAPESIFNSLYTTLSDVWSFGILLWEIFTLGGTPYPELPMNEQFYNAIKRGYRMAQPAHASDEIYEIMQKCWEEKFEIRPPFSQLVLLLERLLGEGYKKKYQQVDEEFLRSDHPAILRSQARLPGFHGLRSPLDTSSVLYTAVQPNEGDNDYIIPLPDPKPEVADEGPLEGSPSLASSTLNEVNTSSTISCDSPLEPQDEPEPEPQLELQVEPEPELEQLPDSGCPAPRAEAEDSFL

In the case of `O=C(O)CCc1c(/C=C2\C(=O)Nc3ccc(Br)cc32)[nH]c2c1CCCC2` [Compound 65], the “inhibition of tumor growth” value with C6 glioma tumors was “approximately 65%”. For the same compound, the “potency in vitro compared to compound 5” value in assay [1] was “almost an order of magnitude greater potency in vitro”. Regarding `CC1C(CCC(=O)O)=CNC1/C=C1\C(=O)Nc2ccccc21` (stereo not shown) [Compound 71], in the assay with C6 glioma tumors, the “inhibition of tumor growth” value is recorded as 51%. In the case of `Cc1[nH]c(/C=C2\C(=O)Nc3ccccc32)c(C)c1CCC(=O)O` [Example 5, 3-[2,4-Dimethyl-5-(2-oxo-1,2-dihydroindol-3-ylidenemethyl)-1H-pyrrol-3-yl]-propionic acid], on PDGFR, the “Ki (inhibition constant) against PDGFR, compared to compound 70” value is “significantly smaller”. With `CCOc1cccc(-c2ccc3c(c2)NC(=O)/C3=C\c2[nH]cc(CCC(=O)O)c2C)c1` [Example 31, 3-{5-[6-(3-Ethoxy-phenyl)-2-oxo-1,2-dihydroindol-3-ylidenemethyl]-4-methyl-1H-pyrrol-3-yl}-propionic acid], the IC50 in the assay on HUV-EC-C cells (aFGF) stood at 180 nM; with HUV-EC-C cells (VEGF), 90 nM. Consider `Cc1[nH]c(/C=C2\C(=O)Nc3cc(-c4ccccc4)ccc32)c(C)c1CCC(=O)O` [Example 32, 3-[2,4-Dimethyl-5-(2-oxo-6-phenyl-1,2-dihydroindol-3-ylidenemethyl)-1H-pyrrol-3-yl]-propionic acid], for which the IC50 in the assay with HUV-EC-C cells (aFGF) and in the assay on HUV-EC-C cells (VEGF) was 10000 nM in each case. With `Cc1c(CCC(=O)O)c[nH]c1/C=C1\C(=O)Nc2cc(-c3ccccc3)ccc21` [Example 33, 3-[4-Methyl-5-(2-oxo-6-phenyl-1,2-dihydro-indol3-ylidenemethyl)-1H-pyrrol-3-yl]-propionic acid], the IC50 was 1000 nM in the assay on HUV-EC-C cells (aFGF) and 810 nM in the assay on HUV-EC-C cells (VEGF).

Source of the values: patent publication US7119090B2, “Pyrrole substituted 2-indolinone protein kinase inhibitors” (Sugen, Inc., priority 1998, dated 2006).
